ChEMBL document CHEMBL3132747, “Design and synthesis of a novel series of N,4-diphenylpyrimidin-2-amine derivatives as potent and selective PI3K inhibitors” (Medchemcomm, 2014)

test system: A549; assay: Anticancer activity against human A549 cells by MTT assay; assay type: functional, cell-based; details: not given

Structure (SMILES)	IC50
Cc1cccc(Nc2nccc(-c3ccc(Cl)cc3Cl)n2)c1	18400 nM
Clc1ccc(Nc2nccc(-c3ccc(Cl)c(Cl)c3)n2)c(Cl)c1	26000 nM
COc1ccc(-c2ccnc(Nc3ccc(Cl)cc3Cl)n2)cc1	7330 nM
Nc1nc(N)c2nc(-c3cccc(O)c3)cnc2n1	490 nM
O=[N+]([O-])c1ccc(Nc2nccc(-c3ccc(Cl)cc3Cl)n2)cc1	119000 nM

Continued, values first:

IC50	Structure (SMILES)
82700 nM	COc1cccc(Nc2nccc(-c3ccc(Br)cc3)n2)c1
2730 nM	COc1ccc(-c2ccnc(Nc3ccc([N+](=O)[O-])cc3)n2)cc1
35900 nM	COc1cccc(Nc2nccc(-c3ccc(F)cc3)n2)c1
32200 nM	COc1cccc(Nc2nccc(-c3ccc(Cl)cc3Cl)n2)c1
3710 nM	CC(C)c1ccccc1Nc1nccc(-c2ccc(Br)cc2)n1
63200 nM	Cc1cccc(Nc2nccc(-c3ccc(Br)cc3)n2)c1

test system: MCF7; assay: Anticancer activity against human MCF7 cells by MTT assay; assay type: functional, cell-based; details: not given

Structure (SMILES)	IC50
Cc1cccc(Nc2nccc(-c3ccc(Cl)cc3Cl)n2)c1	249000 nM
Clc1ccc(Nc2nccc(-c3ccc(Cl)c(Cl)c3)n2)c(Cl)c1	45600 nM
COc1ccc(-c2ccnc(Nc3ccc(Cl)cc3Cl)n2)cc1	4170 nM
Nc1nc(N)c2nc(-c3cccc(O)c3)cnc2n1	1030 nM
O=[N+]([O-])c1ccc(Nc2nccc(-c3ccc(Cl)cc3Cl)n2)cc1	192000 nM

Further lines, results first:

IC50	Structure (SMILES)
278000 nM	COc1cccc(Nc2nccc(-c3ccc(Br)cc3)n2)c1
770 nM	COc1ccc(-c2ccnc(Nc3ccc([N+](=O)[O-])cc3)n2)cc1
412000 nM	COc1cccc(Nc2nccc(-c3ccc(F)cc3)n2)c1
192000 nM	COc1cccc(Nc2nccc(-c3ccc(Cl)cc3Cl)n2)c1
111000 nM	CC(C)c1ccccc1Nc1nccc(-c2ccc(Br)cc2)n1
210000 nM	Cc1cccc(Nc2nccc(-c3ccc(Br)cc3)n2)c1

test system: HepG2; assay: Anticancer activity against human HepG2 cells by MTT assay; assay type: functional, cell-based; details: not given

Structure (SMILES)	IC50
Cc1cccc(Nc2nccc(-c3ccc(Cl)cc3Cl)n2)c1	13200 nM
Clc1ccc(Nc2nccc(-c3ccc(Cl)c(Cl)c3)n2)c(Cl)c1	28400 nM
COc1ccc(-c2ccnc(Nc3ccc(Cl)cc3Cl)n2)cc1	190 nM
Nc1nc(N)c2nc(-c3cccc(O)c3)cnc2n1	820 nM
O=[N+]([O-])c1ccc(Nc2nccc(-c3ccc(Cl)cc3Cl)n2)cc1	99300 nM

The remaining lines, values ahead:

IC50	Structure (SMILES)
148000 nM	COc1cccc(Nc2nccc(-c3ccc(Br)cc3)n2)c1
1040 nM	COc1ccc(-c2ccnc(Nc3ccc([N+](=O)[O-])cc3)n2)cc1
128000 nM	COc1cccc(Nc2nccc(-c3ccc(F)cc3)n2)c1
96900 nM	COc1cccc(Nc2nccc(-c3ccc(Cl)cc3Cl)n2)c1
7030 nM	CC(C)c1ccccc1Nc1nccc(-c2ccc(Br)cc2)n1
74600 nM	Cc1cccc(Nc2nccc(-c3ccc(Br)cc3)n2)c1

molecular target: Phosphatidylinositol 4,5-bisphosphate 3-kinase catalytic subunit alpha isoform (Homo sapiens, UniProt P42336); assay: Inhibition of human PI3Kalpha; details: not given
Sequence (P42336 whole entry, canonical isoform): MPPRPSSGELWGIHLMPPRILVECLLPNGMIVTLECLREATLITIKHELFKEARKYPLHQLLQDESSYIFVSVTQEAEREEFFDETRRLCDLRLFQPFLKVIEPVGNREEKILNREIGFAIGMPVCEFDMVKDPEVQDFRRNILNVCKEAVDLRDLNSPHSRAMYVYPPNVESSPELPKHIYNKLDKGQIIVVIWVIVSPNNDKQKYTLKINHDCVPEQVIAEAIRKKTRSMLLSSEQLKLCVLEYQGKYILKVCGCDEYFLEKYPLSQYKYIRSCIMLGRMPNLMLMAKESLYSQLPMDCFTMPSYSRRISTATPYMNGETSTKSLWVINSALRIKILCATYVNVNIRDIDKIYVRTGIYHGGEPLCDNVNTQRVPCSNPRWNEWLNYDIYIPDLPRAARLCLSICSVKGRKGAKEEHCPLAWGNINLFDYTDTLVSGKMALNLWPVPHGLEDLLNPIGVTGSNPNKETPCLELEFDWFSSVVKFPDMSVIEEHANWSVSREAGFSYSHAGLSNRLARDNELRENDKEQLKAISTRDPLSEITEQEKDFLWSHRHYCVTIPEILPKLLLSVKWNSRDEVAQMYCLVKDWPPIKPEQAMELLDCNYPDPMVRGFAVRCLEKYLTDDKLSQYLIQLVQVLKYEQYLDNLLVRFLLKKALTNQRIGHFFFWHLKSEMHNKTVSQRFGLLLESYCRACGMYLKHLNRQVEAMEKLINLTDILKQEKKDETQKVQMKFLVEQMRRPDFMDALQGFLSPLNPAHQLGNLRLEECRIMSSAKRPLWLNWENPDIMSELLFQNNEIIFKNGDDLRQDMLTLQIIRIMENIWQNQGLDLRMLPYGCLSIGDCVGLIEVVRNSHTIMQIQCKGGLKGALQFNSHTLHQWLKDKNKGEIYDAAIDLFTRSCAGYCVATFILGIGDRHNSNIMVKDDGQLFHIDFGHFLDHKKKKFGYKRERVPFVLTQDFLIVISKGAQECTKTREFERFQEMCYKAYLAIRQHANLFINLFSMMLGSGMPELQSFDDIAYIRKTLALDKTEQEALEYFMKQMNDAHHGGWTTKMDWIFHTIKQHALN

Structure (SMILES)	IC50
Cc1cccc(Nc2nccc(-c3ccc(Cl)cc3Cl)n2)c1	813 nM
Clc1ccc(Nc2nccc(-c3ccc(Cl)c(Cl)c3)n2)c(Cl)c1	836 nM
COc1ccc(-c2ccnc(Nc3ccc(Cl)cc3Cl)n2)cc1	738 nM
O=[N+]([O-])c1ccc(Nc2nccc(-c3ccc(Cl)cc3Cl)n2)cc1	953 nM

More lines, now with the values ahead:

IC50	Structure (SMILES)
> 1000 nM	COc1cccc(Nc2nccc(-c3ccc(Br)cc3)n2)c1
527 nM	COc1ccc(-c2ccnc(Nc3ccc([N+](=O)[O-])cc3)n2)cc1
880 nM	COc1cccc(Nc2nccc(-c3ccc(F)cc3)n2)c1
851 nM	COc1cccc(Nc2nccc(-c3ccc(Cl)cc3Cl)n2)c1
792 nM	CC(C)c1ccccc1Nc1nccc(-c2ccc(Br)cc2)n1
894 nM	Cc1cccc(Nc2nccc(-c3ccc(Br)cc3)n2)c1

test system: HeLa; assay: Anticancer activity against human HeLa cells by MTT assay; assay type: functional, cell-based; details: not given

Structure (SMILES)	IC50
Cc1cccc(Nc2nccc(-c3ccc(Cl)cc3Cl)n2)c1	7660 nM
Clc1ccc(Nc2nccc(-c3ccc(Cl)c(Cl)c3)n2)c(Cl)c1	23000 nM
COc1ccc(-c2ccnc(Nc3ccc(Cl)cc3Cl)n2)cc1	23000 nM
Nc1nc(N)c2nc(-c3cccc(O)c3)cnc2n1	150 nM
O=[N+]([O-])c1ccc(Nc2nccc(-c3ccc(Cl)cc3Cl)n2)cc1	168000 nM

Further lines, results first:

IC50	Structure (SMILES)
153000 nM	COc1cccc(Nc2nccc(-c3ccc(Br)cc3)n2)c1
980 nM	COc1ccc(-c2ccnc(Nc3ccc([N+](=O)[O-])cc3)n2)cc1
145000 nM	COc1cccc(Nc2nccc(-c3ccc(F)cc3)n2)c1
76400 nM	COc1cccc(Nc2nccc(-c3ccc(Cl)cc3Cl)n2)c1
11500 nM	CC(C)c1ccccc1Nc1nccc(-c2ccc(Br)cc2)n1
71000 nM	Cc1cccc(Nc2nccc(-c3ccc(Br)cc3)n2)c1

molecular target: Phosphatidylinositol 4,5-bisphosphate 3-kinase catalytic subunit gamma isoform (Homo sapiens, UniProt P48736); assay: Inhibition of human PI3Kgamma; details: read-out: IC50
Sequence (P48736 whole entry, canonical isoform): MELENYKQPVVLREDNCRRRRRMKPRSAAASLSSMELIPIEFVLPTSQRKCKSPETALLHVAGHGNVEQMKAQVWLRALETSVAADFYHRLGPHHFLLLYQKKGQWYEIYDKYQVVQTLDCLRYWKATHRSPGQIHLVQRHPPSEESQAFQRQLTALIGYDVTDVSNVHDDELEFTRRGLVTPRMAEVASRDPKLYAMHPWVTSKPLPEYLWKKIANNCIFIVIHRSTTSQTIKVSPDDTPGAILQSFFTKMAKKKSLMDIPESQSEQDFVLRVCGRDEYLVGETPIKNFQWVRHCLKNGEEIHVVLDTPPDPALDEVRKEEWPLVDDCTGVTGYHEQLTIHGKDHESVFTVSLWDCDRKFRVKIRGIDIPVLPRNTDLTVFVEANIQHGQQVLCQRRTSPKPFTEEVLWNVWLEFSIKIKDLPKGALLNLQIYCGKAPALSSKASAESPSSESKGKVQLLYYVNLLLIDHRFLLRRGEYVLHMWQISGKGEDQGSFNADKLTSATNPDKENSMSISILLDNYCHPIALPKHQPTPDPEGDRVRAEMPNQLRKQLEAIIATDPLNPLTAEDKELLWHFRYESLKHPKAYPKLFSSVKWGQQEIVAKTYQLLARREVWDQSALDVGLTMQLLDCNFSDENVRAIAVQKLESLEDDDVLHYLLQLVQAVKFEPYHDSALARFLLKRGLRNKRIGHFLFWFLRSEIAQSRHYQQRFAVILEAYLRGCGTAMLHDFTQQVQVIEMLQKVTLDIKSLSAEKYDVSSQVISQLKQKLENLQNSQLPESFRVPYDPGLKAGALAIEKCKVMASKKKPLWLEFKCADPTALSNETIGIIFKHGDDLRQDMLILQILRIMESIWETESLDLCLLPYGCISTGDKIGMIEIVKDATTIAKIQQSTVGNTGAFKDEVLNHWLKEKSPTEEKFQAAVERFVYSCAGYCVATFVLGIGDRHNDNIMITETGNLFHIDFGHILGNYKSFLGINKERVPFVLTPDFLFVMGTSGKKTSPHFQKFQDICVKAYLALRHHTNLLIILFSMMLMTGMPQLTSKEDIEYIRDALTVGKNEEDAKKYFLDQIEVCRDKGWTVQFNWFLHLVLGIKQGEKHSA

Structure (SMILES)	IC50
Cc1cccc(Nc2nccc(-c3ccc(Cl)cc3Cl)n2)c1	274 nM
Clc1ccc(Nc2nccc(-c3ccc(Cl)c(Cl)c3)n2)c(Cl)c1	250 nM
COc1ccc(-c2ccnc(Nc3ccc(Cl)cc3Cl)n2)cc1	235 nM
O=[N+]([O-])c1ccc(Nc2nccc(-c3ccc(Cl)cc3Cl)n2)cc1	386 nM

The remaining lines, values ahead:

IC50	Structure (SMILES)
357 nM	COc1cccc(Nc2nccc(-c3ccc(Br)cc3)n2)c1
143 nM	COc1ccc(-c2ccnc(Nc3ccc([N+](=O)[O-])cc3)n2)cc1
334 nM	COc1cccc(Nc2nccc(-c3ccc(F)cc3)n2)c1
278 nM	COc1cccc(Nc2nccc(-c3ccc(Cl)cc3Cl)n2)c1
313 nM	CC(C)c1ccccc1Nc1nccc(-c2ccc(Br)cc2)n1
342 nM	Cc1cccc(Nc2nccc(-c3ccc(Br)cc3)n2)c1

same assay, conditions: read-out: pIC50 (converted)

Structure (SMILES)	IC50
Cc1cccc(Nc2nccc(-c3ccc(Cl)cc3Cl)n2)c1	274 nM
Clc1ccc(Nc2nccc(-c3ccc(Cl)c(Cl)c3)n2)c(Cl)c1	250 nM
COc1ccc(-c2ccnc(Nc3ccc(Cl)cc3Cl)n2)cc1	235 nM
O=[N+]([O-])c1ccc(Nc2nccc(-c3ccc(Cl)cc3Cl)n2)cc1	386 nM

Other lines, results leading:

IC50	Structure (SMILES)
357 nM	COc1cccc(Nc2nccc(-c3ccc(Br)cc3)n2)c1
143 nM	COc1ccc(-c2ccnc(Nc3ccc([N+](=O)[O-])cc3)n2)cc1
334 nM	COc1cccc(Nc2nccc(-c3ccc(F)cc3)n2)c1
278 nM	COc1cccc(Nc2nccc(-c3ccc(Cl)cc3Cl)n2)c1
313 nM	CC(C)c1ccccc1Nc1nccc(-c2ccc(Br)cc2)n1
342 nM	Cc1cccc(Nc2nccc(-c3ccc(Br)cc3)n2)c1

molecular target: Phosphatidylinositol 4,5-bisphosphate 3-kinase catalytic subunit beta isoform (Homo sapiens, UniProt P42338); assay: Inhibition of human PI3Kbeta; details: not given
Sequence (P42338 whole entry, canonical isoform): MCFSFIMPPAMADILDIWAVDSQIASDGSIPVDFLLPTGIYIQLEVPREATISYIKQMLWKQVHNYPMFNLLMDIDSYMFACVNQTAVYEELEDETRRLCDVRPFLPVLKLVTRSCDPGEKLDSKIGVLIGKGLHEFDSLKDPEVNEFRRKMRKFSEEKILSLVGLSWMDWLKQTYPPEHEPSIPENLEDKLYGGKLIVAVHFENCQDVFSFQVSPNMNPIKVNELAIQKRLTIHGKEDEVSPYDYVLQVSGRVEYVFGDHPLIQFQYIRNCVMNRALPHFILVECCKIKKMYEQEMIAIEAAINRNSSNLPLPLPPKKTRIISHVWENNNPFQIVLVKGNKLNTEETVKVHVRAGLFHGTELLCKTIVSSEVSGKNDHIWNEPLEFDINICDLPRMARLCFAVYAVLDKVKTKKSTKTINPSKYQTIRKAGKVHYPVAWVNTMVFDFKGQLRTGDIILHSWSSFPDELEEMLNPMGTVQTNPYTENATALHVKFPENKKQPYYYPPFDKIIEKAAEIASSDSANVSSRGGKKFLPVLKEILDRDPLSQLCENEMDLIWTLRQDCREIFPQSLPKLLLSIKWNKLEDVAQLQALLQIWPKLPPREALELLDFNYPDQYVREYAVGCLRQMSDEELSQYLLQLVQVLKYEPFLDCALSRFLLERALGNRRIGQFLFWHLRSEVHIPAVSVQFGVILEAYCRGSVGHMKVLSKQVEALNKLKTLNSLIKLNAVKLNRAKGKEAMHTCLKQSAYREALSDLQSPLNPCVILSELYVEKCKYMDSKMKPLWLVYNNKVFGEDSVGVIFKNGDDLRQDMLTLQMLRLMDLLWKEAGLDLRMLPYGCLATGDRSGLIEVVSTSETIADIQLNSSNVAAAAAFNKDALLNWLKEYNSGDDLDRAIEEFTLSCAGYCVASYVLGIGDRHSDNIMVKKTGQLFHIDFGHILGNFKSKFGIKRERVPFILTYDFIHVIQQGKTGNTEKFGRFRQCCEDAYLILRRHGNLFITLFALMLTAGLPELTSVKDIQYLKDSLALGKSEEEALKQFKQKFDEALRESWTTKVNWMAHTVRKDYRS

Structure (SMILES)	IC50
Cc1cccc(Nc2nccc(-c3ccc(Cl)cc3Cl)n2)c1	851 nM
Clc1ccc(Nc2nccc(-c3ccc(Cl)c(Cl)c3)n2)c(Cl)c1	926 nM
COc1ccc(-c2ccnc(Nc3ccc(Cl)cc3Cl)n2)cc1	839 nM
O=[N+]([O-])c1ccc(Nc2nccc(-c3ccc(Cl)cc3Cl)n2)cc1	938 nM

Continued, values first:

IC50	Structure (SMILES)
977 nM	COc1cccc(Nc2nccc(-c3ccc(Br)cc3)n2)c1
537 nM	COc1ccc(-c2ccnc(Nc3ccc([N+](=O)[O-])cc3)n2)cc1
> 1000 nM	COc1cccc(Nc2nccc(-c3ccc(F)cc3)n2)c1
893 nM	COc1cccc(Nc2nccc(-c3ccc(Cl)cc3Cl)n2)c1
874 nM	CC(C)c1ccccc1Nc1nccc(-c2ccc(Br)cc2)n1
> 1000 nM	Cc1cccc(Nc2nccc(-c3ccc(Br)cc3)n2)c1
